Assay: xn = mol fraction of the nth substance listed

CCCCCCO + CCCC[n+]1ccn(C)c1.O=S(=O)([N-]S(=O)(=O)C(F)(F)F)C(F)(F)F
298 K, 100 kPa
Conditions	electrical conductivity [S/m]	viscosity [mPa·s]
x2 = 0	–	4.502
x2 = 0.6	0.5605	–
x2 = 0.7	0.491	26.59
x2 = 0.8	0.4635	–
x2 = 0.8006	–	32.43
x2 = 0.899	–	40.3
x2 = 0.9	0.427	–

CCCC[n+]1ccn(C)c1.F[P-](F)(F)(F)(F)F + CCCC[n+]1ccn(C)c1.O=S(=O)([N-]S(=O)(=O)C(F)(F)F)C(F)(F)F
Conditions	viscosity [mPa·s]
313.15 K, 100 kPa, x1 = 0.5	49.8

CCOC(C)=O + CCCC[n+]1ccn(C)c1.O=S(=O)([N-]S(=O)(=O)C(F)(F)F)C(F)(F)F
298.15 K, 101 kPa
Conditions	viscosity [mPa·s]
x1 = 0.092	40
x1 = 0.2303	26.5

O=C1CCCCCO1 + CCCC[n+]1ccn(C)c1.O=S(=O)([N-]S(=O)(=O)C(F)(F)F)C(F)(F)F
electrical conductivity [S/m], 100 kPa, frequency 0.01 MHz
Conditions	293.15 K	298.15 K	303.15 K	308.15 K	313.15 K	318.15 K	323.15 K
x2 = 0.05	0.137	0.15	0.162	0.175	0.188	0.201	0.209
x2 = 0.1002	0.269	0.294	0.319	0.338	0.364	0.393	0.421
x2 = 0.1505	0.378	0.414	0.454	0.485	0.521	0.565	0.605
x2 = 0.1985	0.504	0.548	0.598	0.649	0.706	0.772	0.847
x2 = 0.3001	0.589	0.647	0.715	0.779	0.855	0.943	1.03
x2 = 0.3987	0.567	0.64	0.721	0.803	0.894	0.983	1.08
x2 = 0.4903	0.526	0.594	0.674	0.766	0.856	0.955	1.05
x2 = 0.6309	0.451	0.523	0.607	0.688	0.774	0.872	0.969
x2 = 0.6988	0.418	0.489	0.564	0.645	0.73	0.829	0.928
x2 = 0.8042	0.374	0.441	0.515	0.598	0.689	0.783	0.885
x2 = 0.883	0.356	0.417	0.489	0.573	0.665	0.759	0.862

— the CheMixHub ionic liquid set
